Consider 26 compounds from patent US10273243B2, “4-phenylpiperidines, their preparation and use” (The Trustees of Columbia University in the City of New York, priority 2013, dated 2019).

The test system of one series is RBP4-TTR interaction. Conditions: cited from earlier work.
A further series has as its system Abca4−/− mice. Conditions: animal model of excessive bisretinoid accumulation; cited from earlier work.
The subject of series [1] is retinal pigment epithelium cells. Conditions: many cell types, including the retinal pigment epithelium cells; cited from earlier work.
A further series has as its target RBP4 (Homo sapiens, UniProt P02753). Conditions: cited from earlier work.
Another series has as its system serum RBP4 and retinol. Conditions: in vivo; cited from earlier work.
The conditions of series [2]: cited from earlier work.

`O=C(c1cc2ncc(-n3ccnc3)cc2[nH]1)N1CCC(c2ccccc2C(F)(F)F)CC1` [Example 75, (6-(1H-Imidazol-1-yl)-1H-pyrrolo[3,2-b]pyridin-2-yl)(4-(2-(trifluoromethyl)phenyl)piperidin-1-yl)methanone]: the melting point is greater than 270 °C. Still for that read-out and setting: next, `O=C(c1cc2ncc(Cl)cc2[nH]1)N1CCC(c2ccccc2C(F)(F)F)CC1` [Example 77, (6-Chloro-1H-pyrrolo[3,2-b]pyridin-2-yl)(4-(2-(trifluoromethyl)phenyl)piperidin-1-yl)methanone]: 258 to 261 °C; `CC(=O)N1CCc2c(C(=O)N3CCC(c4ccccc4C(F)(F)F)CC3)n[nH]c2C1` [Example 17, 1-(3-(4-(2-(Trifluoromethyl)phenyl)piperidine-1-carbonyl)-4,5-dihydro-1H-pyrazolo[3,4-c]pyridin-6(7H)-yl)ethanone]: 202 to 209 °C.

In the case of `CC(C)C(=O)N1CCc2[nH]nc(C(=O)N3CCC(c4ccccc4C(F)(F)F)CC3)c2C1` [Example 41, 2-Methyl-1-(3-(4-(2-(trifluoromethyl)phenyl)piperidine-1-carbonyl)-6,7-dihydro-1H-pyrazolo[4,3-c]pyridin-5(4H)-yl)propan-1-one], the melting point lay in the range of 112 to 114 °C. Consider `CC1(C(=O)N2CCC(c3ccccc3C(F)(F)F)CC2)COC1` [Example 103, (3-Methyloxetan-3-yl)(4-(2-(trifluoromethyl)phenyl)piperidin-1-yl)methanone], for which the melting point lay within 100 to 102 °C. `Cn1c(C(=O)N2CCC(c3ccccc3C(F)(F)F)CC2)cc2ncccc21` [Example 74, (1-Methyl-1H-pyrrolo[3,2-b]pyridin-2-yl)(4-(2-(trifluoromethyl)phenyl)piperidin-1-yl)methanone]: the melting point is 159 to 163 °C. The same measure, in the same setting: next, `Cc1nc2ccc(Cl)nn2c1C(=O)N1CCC(c2ccccc2C(F)(F)F)CC1` [Example 89, (6-Chloro-2-methylimidazol[1,2-b]pyridazin-3-yl)(4-(2-(trifluoromethyl)phenyl)piperidin-1-yl)methanone]: 147 to 150 °C. Still for that read-out and setting: next, `O=C(c1ccc(Cl)nn1)N1CCC(c2ccccc2C(F)(F)F)CC1` [Example 83, (6-Chloropyridazin-3-yl)(4-(2-(trifluoromethyl)phenyl)piperidin-1-yl)methanone]: 170 to 172 °C; `O=C(c1cnccn1)N1CCC(c2ccccc2C(F)(F)F)CC1` [Example 87, Pyrazin-2-yl(4-(2-(trifluoromethyl)phenyl)piperidin-1-yl)methanone]: 109 to 111 °C; `CC(C)(C)C(=O)N1CCc2[nH]nc(C(=O)N3CCC(c4ccccc4C(F)(F)F)CC3)c2C1` [Example 40, 2,2-Dimethyl-1-(3-(4-(2-(trifluoromethyl)phenyl)piperidine-1-carbonyl)-6,7-dihydro-1H-pyrazolo[4,3-c]pyridin-5(4H)-yl)propan-1-one]: 126 to 128 °C. Still for that read-out and setting: next, `O=C(c1n[nH]c2cc(F)c(F)cc12)N1CCC(c2ccccc2C(F)(F)F)CC1` [Example 34, (5,6-Difluoro-1H-indazol-3-yl)(4-(2-(trifluoromethyl)phenyl)piperidin-1-yl)methanone]: 233 to 235 °C; `CC(C)(C)c1ccccc1C1CCN(C(=O)C2CCCS2(=O)=O)CC1` (stereo not drawn) [Example 100, (4-(2-(tert-butyl)phenyl)piperidin-1-yl)(1,1-dioxidotetrahydrothiophen-2-yl)methanone]: 80 to 84 °C; `O=C(c1cnn[nH]1)N1CCC(c2ccccc2C(F)(F)F)CC1` [Example 88, (1H-1,2,3-Triazol-5-yl)(4-(2-(trifluoromethyl)phenyl)piperidin-1-yl)methanone]: 235 to 239 °C (dec.). Regarding `CN1CCc2c(C(=O)N3CCC(c4ccccc4C(F)(F)F)CC3)n[nH]c2C1` [Example 19, (6-Methyl-4,5,6,7-tetrahydro-1H-pyrazolo[3,4-c]pyridin-3-yl)(4-(2-(trifluoromethyl)phenyl)piperidin-1-yl)methanone], the melting point fell in the range of 115 to 120 °C. On the same count and under the same terms, next, `Cc1ccc(C(=O)N2CCC(c3ccccc3C(F)(F)F)CC2)nn1` [Example 85, (6-Methylpyridazin-3-yl)(4-(2-(trifluoromethyl)phenyl)piperidin-1-yl)methanone]: 144 to 148 °C; `CS(=O)(=O)N1CCc2[nH]nc(C(=O)N3CCC(c4ccccc4C(F)(F)F)CC3)c2C1` [Example 28, (5-(Methylsulfonyl)-4,5,6,7-tetrahydro-1H-pyrazolo[4,3-c]pyridin-3-yl)(4-(2-(trifluoromethyl)phenyl)piperidin-1-yl)methanone]: 240 to 243 °C. The compound `CCC(=O)N1Cc2[nH]nc(C(=O)N3CCC(c4ccccc4C(F)(F)F)CC3)c2C1` [Example 53, 1-(3-(4-(2-(Trifluoromethyl)phenyl)piperidine-1-carbonyl)pyrrolo[3,4-c]pyrazol-5(1H,4H,6H)-yl)propan-1-one] displayed a melting point of 216 to 219 °C. Still for that read-out and setting: next, `COCC(=O)N1CCc2[nH]nc(C(=O)N3CCC(c4ccccc4C(F)(F)F)CC3)c2C1` [Example 48, 2-Methoxy-1-(3-(4-(2-(trifluoromethyl)phenyl)piperidine-1-carbonyl)-6,7-dihydro-1H-pyrazolo[4,3-c]pyridin-5(4H)-yl)ethanone]: 192 to 194 °C. Same read-out and setting: next, `CC(C)(C)c1ccccc1C1CCN(C(=O)[C@H]2C[C@@H](O)CN2)CC1` [Example 98, (4-(2-(Tert-butyl)phenyl)piperidin-1-yl)((2R,4R)-4-hydroxypyrrolidin-2-yl)methanone]: 65 to 75 °C; `CC(C)CC(=O)N1CCc2[nH]nc(C(=O)N3CCC(c4ccccc4C(F)(F)F)CC3)c2C1` [Example 42, 3-Methyl-1-(3-(4-(2-(trifluoromethyl)phenyl)piperidine-1-carbonyl)-6,7-dihydro-1H-pyrazolo[4,3-c]pyridin-5(4H)-yl)butan-1-one]: 107 to 109 °C; `Cn1nc(C(=O)N2CCC(c3ccccc3C(F)(F)F)CC2)c2cc(F)ccc21` [Example 21, (5-Fluoro-1-methyl-1H-indazol-3-yl)(4-(2-(trifluoromethyl)phenyl)piperidin-1-yl)methanone]: 161 to 163 °C. Take `CCC(=O)N1CCc2[nH]nc(C(=O)N3CCC(c4ccccc4C(F)(F)F)CC3)c2C1` [Example 44, 1-(3-(4-(2-(Trifluoromethyl)phenyl)piperidine-1-carbonyl)-6,7-dihydro-1H-pyrazolo[4,3-c]pyridin-5(4H)-yl)propan-1-one]: the melting point lay in the range of 153 to 155 °C. `CC1=C(/C=C/C(C)=C/C=C/C(C)=C/C(=O)Nc2ccc(O)cc2)C(C)(C)CCC1` [fenretinide, N-(4-hydroxy-phenyl)retinamide]: the “disruption of RBP4-TTR interaction” value with RBP4-TTR interaction is “disrupt the RBP4-TTR interaction”. For the same compound, in the series on Abca4−/− mice, the A2E production entry is given as “reduced A2E production”. For the same compound, the induction of apoptosis entry in series [1] was “extremely active inducer of apoptosis”. Further, on RBP4, the “binding to RBP4” value was “bind to RBP4” and the “displacement of all-trans retinol from RBP4” value is given as “displace all-trans retinol from RBP4”. Also, in the series with serum RBP4 and retinol, the “ocular all-trans retinol uptake” value is recorded as “inhibit ocular all-trans retinol uptake”; the “serum RBP4 and retinol” value is “reduce serum RBP4 and retinol”; the visual cycle entry is “slow down the visual cycle”. The formation of hemangiosarcomas entry in series [2] (mice) is listed as “stimulate formation of hemangiosarcomas”. Also, in series [2] (mouse, in vivo), the selectivity and toxicity result is “non-selective and toxic”; the teratogenicity entry was “teratogenic”. The compound `O=C(CC(F)(F)F)N1CCc2[nH]nc(C(=O)N3CCC(c4ccccc4C(F)(F)F)CC3)c2C1` [Example 47, 3,3,3-Trifluoro-1-(3-(4-(2-(trifluoromethyl)phenyl)piperidine-1-carbonyl)-6,7-dihydro-1H-pyrazolo[4,3-c]pyridin-5(4H)-yl)propan-1-one] returned a melting point of 127 to 130 °C. Same read-out and setting: next, `N#Cc1ccc2[nH]nc(C(=O)N3CCC(c4ccccc4C(F)(F)F)CC3)c2c1` [Example 36, 3-(4-(2-(Trifluoromethyl)phenyl)piperidine-1-carbonyl)-1H-indazole-5-carbonitrile]: 249 to 252 °C. Same read-out and setting: next, `CC(C)(C)C(=O)N1Cc2[nH]nc(C(=O)N3CCC(c4ccccc4C(F)(F)F)CC3)c2C1` [Example 56, 2,2-Dimethyl-1-(3-(4-(2-(trifluoromethyl)phenyl)piperidine-1-carbonyl)pyrrolo[3,4-c]pyrazol-5(1H,4H,6H)-yl)propan-1-one]: 229 to 232 °C.
